IC50 data for 33 compounds are collected here from US11384055B2 (BIOMARIN PHARMACEUTICAL INC., priority 2017, dated 2022).

The structures appear in SMILES notation. Read-outs that look alike come from different tables or passages of the source. A value given as a limit tells only on which side of the number the result lay.

The IC50 is the midpoint of a concentration-inhibition curve.

This test concerns the target T1, Human GO (Homo sapiens, UniProt Q9UJM8).
T1 construct: purchased Novus Biologicals NBP1-72412
T1 sequence (Q9UJM8 1-370): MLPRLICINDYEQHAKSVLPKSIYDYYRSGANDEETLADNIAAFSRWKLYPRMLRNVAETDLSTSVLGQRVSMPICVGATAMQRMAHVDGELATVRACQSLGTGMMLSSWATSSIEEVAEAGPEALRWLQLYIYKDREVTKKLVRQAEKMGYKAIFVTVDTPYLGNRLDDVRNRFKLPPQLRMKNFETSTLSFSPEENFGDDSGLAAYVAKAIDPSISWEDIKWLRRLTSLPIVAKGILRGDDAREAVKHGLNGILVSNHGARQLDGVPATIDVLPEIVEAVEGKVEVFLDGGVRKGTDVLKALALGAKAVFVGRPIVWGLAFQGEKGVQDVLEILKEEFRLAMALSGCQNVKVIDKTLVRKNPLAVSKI
Nature of the test: GO enzymatic assay (coupled fluorescence/HRP assay, glycolate substrate). It counts as biochemical. To be noted: read-out: Range (range of IC50 values calculated from the enzymatic assays). Here is the method:
Assay 1: GO Enzymatic Assay
GO was incubated with its substrate, glycolate, in 50 mM potassium phosphate buffer, pH 7. […] The enzyme was optimized and the kinetics was determined.
Compound inhibition was determined by adding various concentrations of inhibitors in the GO enzyme assay. The IC50 value for each measured compound was generated from sigmoidal dose-response (variable slope) curves with GraphPad Prism software (GraphPad Software, Inc., San Diego, Calif.) using the percent inhibition of GO activity relative to DMSO control.

In the case of `CCCC(O)(CC)Cn1ccc(-c2ccc([C@H]3CC[C@H](Oc4nn[nH]c4C(=O)O)CC3)cc2)n1` (relative stereo) [Example 458, 4-(((trans)-4-(4-(1-(2-ethyl-2-hydroxypentyl)-1H-pyrazol-3-yl)phenyl)cyclohexyl)oxy)-1H-1,2,3-triazole-5-carboxylic acid], where the note is “Table 4”, the IC50 is < 100 nM. Consider `CCCC(O)(CC)Cn1nccc1-c1ccc([C@H]2CC[C@H](Oc3nn[nH]c3C(=O)O)CC2)cc1` (relative stereo) [Example 470, 4-(((trans)-4-(4-(1-(2-ethyl-2-hydroxypentyl)-1H-pyrazol-5-yl)phenyl)cyclohexyl)oxy)-1H-1,2,3-triazole-5-carboxylic acid], for which, where the note is “Table 4”, the IC50 was < 100 nM. On the same count and under the same terms, to `CCC(Cc1cc(-c2ccc([C@H]3CC[C@H](Oc4nn[nH]c4C(=O)O)CC3)cc2)[nH]n1)OC` (relative stereo) [Example 475, 4-(((trans)-4-(4-(3-(2-methoxybutyl)-1H-pyrazol-5-yl)phenyl)cyclohexyl)oxy)-1H-1,2,3-triazole-5-carboxylic acid] belongs < 100 nM; to `O=C(O)c1[nH]nnc1O[C@H]1CC[C@H](c2ccc(-c3ccnn3[C@H]3CCCC[C@@H]3O)cc2)CC1` (relative stereo) [Example 476, 4-(((trans)-4-(4-(1-((1S,2S)-2-hydroxycyclohexyl)-1H-pyrazol-5-yl)phenyl)cyclohexyl)oxy)-1H-1,2,3-triazole-5-carboxylic acid], < 100 nM. For `O=C(O)c1[nH]nnc1O[C@H]1CC[C@H](c2ccc(OC[C@H]3CCC[C@H](CO)C3)cc2)CC1` (relative stereo) [Example 483, 4-(((trans)-4-(4-(((trans)-3-(hydroxymethyl)cyclohexyl)methoxy)phenyl)cyclohexyl)oxy)-1H-1,2,3-triazole-5-carboxylic acid], under “Table 4”, the IC50 was < 100 nM.

Take `O=C(O)c1[nH]nnc1Sc1nc(-c2ccc(Cl)c(Cl)c2)cs1` [Compound 2, 4-((4-(3,4-dichlorophenyl)thiazol-2-yl)thio)-1H-1,2,3-triazole-5-carboxylic acid]: where the note is “Table 1”, the IC50 is < 100 nM. On the same count and under the same terms, the result for `O=C(O)c1[nH]nnc1Sc1ncc(-c2ccc(Cl)c(Cl)c2)s1` [Compound 3, 4-((5-(3,4-dichlorophenyl)thiazol-2-yl)thio)-1H-1,2,3-triazole-5-carboxylic acid] reads < 100 nM; that for `O=C(O)c1[nH]nnc1Sc1ccc(-c2ccc(Cl)cc2)cc1` [Compound 5, 4-((4′-chloro-[1,1′-biphenyl]-4-yl)thio)-1H-1,2,3-triazole-5-carboxylic acid], < 100 nM.

For the compound `CN1CCN(c2cccc(Sc3[nH]nnc3C(=O)O)c2)CC1` [Compound 6, 5-((3-(4-methylpiperazin-1-yl)phenyl)thio)-1H-1,2,3-triazole-4-carboxylic acid 2,2,2-trifluoroacetate], the IC50 (Table 1) was > 10000 nM.

As to `O=C(O)c1[nH]nnc1Sc1ccc(N2CCCCC2)cc1` [Compound 7, 4-((4-(piperidin-1-yl)phenyl)thio)-1H-1,2,3-triazole-5-carboxylic acid 2,2,2-trifluoroacetate], under “Table 1”, the IC50 is 100 to 1000 nM. For `O=C(O)c1[nH]nnc1Sc1csc(-c2ccc(Cl)c(Cl)c2)n1` [Compound 8, 4-((2-(3,4-dichlorophenyl)thiazol-4-yl)thio)-1H-1,2,3-triazole-5-carboxylic acid], the IC50 (Table 1) is < 100 nM. As to `O=C(OC1CCC1)c1[nH]nnc1Sc1nc(-c2ccc(Cl)c(Cl)c2)cs1` [Compound 9, cyclobutyl 4-((4-(3,4-dichlorophenyl)thiazol-2-yl)thio)-1H-1,2,3-triazole-5-carboxylate], where the note is “Table 1”, the IC50 is > 10000 nM.

Regarding `CN1CCN(c2ccc(Sc3nn[nH]c3C(=O)O)cc2)CC1` [Compound 10, 4-((4-(4-methylpiperazin-1-yl)phenyl)thio)-1H-1,2,3-triazole-5-carboxylic acid], the IC50 (Table 1) was 1000 to 10000 nM. With `CC(C)OC(=O)c1[nH]nnc1Sc1nc(-c2ccc(Cl)c(Cl)c2)cs1` [Compound 11, isopropyl 4-((4-(3,4-dichlorophenyl)thiazol-2-yl)thio)-1H-1,2,3-triazole-5-carboxylate], where the note is “Table 1”, the IC50 was > 10000 nM.

For the compound `O=C(O)c1[nH]nnc1Sc1ccc(-c2ccc(Br)cc2)cn1` [Compound 12, 4-((5-(4-bromophenyl)pyridin-2-yl)thio)-1H-1,2,3-triazole-5-carboxylic acid 2,2,2-trifluoroacetate], the IC50 (Table 1) is 100 to 1000 nM. As to `O=C(O)c1[nH]nnc1Sc1nnc(-c2ccc(Cl)c(Cl)c2)[nH]1` [Compound 13, 4-((5-(3,4-dichlorophenyl)-4H-1,2,4-triazol-3-yl)thio)-1H-1,2,3-triazole-5-carboxylic acid], where the note is “Table 1”, the 50% inhibitory concentration (IC50) was 100 to 1000 nM. The same measure, in the same setting: the result for `COc1ccc(-c2ccc(Sc3nn[nH]c3C(=O)O)cc2)cc1` [Compound 14, 4-((4′-methoxy-[1,1′-biphenyl]-4-yl)thio)-1H-1,2,3-triazole-5-carboxylic acid] reads < 100 nM; that for `COc1ccc(-c2csc(Sc3nn[nH]c3C(=O)O)n2)cc1Cl` [Compound 15, 4-((4-(3-chloro-4-methoxyphenyl)thiazol-2-yl)thio)-1H-1,2,3-triazole-5-carboxylic acid], < 100 nM; that for `O=C(O)c1[nH]nnc1Sc1ccc(-c2ccc(OC(F)(F)F)cc2)cc1` [Compound 16, 4-((4′-(trifluoromethoxy)-[1,1′-biphenyl]-4-yl)thio)-1H-1,2,3-triazole-5-carboxylic acid], < 100 nM.

For `COC(=O)c1[nH]nnc1Sc1nc(-c2ccc(Cl)c(Cl)c2)cs1` [Compound 17, methyl 4-((4-(3,4-dichlorophenyl)thiazol-2-yl)thio)-1H-1,2,3-triazole-5-carboxylate], the concentration for half-maximal inhibition (IC50) (Table 1) was > 10000 nM. Same read-out and setting: the result for `O=C(O)c1[nH]nnc1Sc1nc(-c2ccc(OC3CC3)c(Cl)c2)cs1` [Compound 18, 4-((4-(3-chloro-4-cyclopropoxyphenyl)thiazol-2-yl)thio)-1H-1,2,3-triazole-5-carboxylic acid] reads < 100 nM.

With `O=C(OC1CC1)c1[nH]nnc1Sc1nc(-c2ccc(Cl)c(Cl)c2)cs1` [Compound 19, cyclopropyl 4-((4-(3,4-dichlorophenyl)thiazol-2-yl)thio)-1H-1,2,3-triazole-5-carboxylate], where the note is “Table 1”, the IC50 was > 10000 nM.

With `O=C(O)c1[nH]nnc1Sc1cccc(-c2ccc(Cl)c(Cl)c2)n1` [Compound 20, 4-((6-(3,4-dichlorophenyl)pyridin-2-yl)thio)-1H-1,2,3-triazole-5-carboxylic acid], the IC50 (Table 1) is < 100 nM. `O=C(O)c1[nH]nnc1Sc1ccc(-c2ccc(Cl)c(Cl)c2)cc1` [Compound 21, 4-((3′,4′-dichloro-[1,1′-biphenyl]-4-yl)thio)-1H-1,2,3-triazole-5-carboxylic acid]: the IC50 (Table 1) was < 100 nM. Take `O=C(O)c1[nH]nnc1Sc1ccc(-c2ccc(Cl)cc2Cl)cc1` [Compound 22, 4-((2′,4′-dichloro-[1,1′-biphenyl]-4-yl)thio)-1H-1,2,3-triazole-5-carboxylic acid]: the 50% inhibitory concentration (IC50) (Table 1) was < 100 nM. The same measure, in the same setting: the result for `COc1cc(-c2nc(Sc3nn[nH]c3C(=O)O)cs2)ccc1Cl` [Compound 23, 4-((2-(4-chloro-3-methoxyphenyl)thiazol-4-yl)thio)-1H-1,2,3-triazole-5-carboxylic acid] reads < 100 nM. Take `CC(C)Oc1cc(-c2nc(Sc3nn[nH]c3C(=O)O)cs2)ccc1Cl` [Compound 24, 4-((2-(4-chloro-3-isopropoxyphenyl)thiazol-4-yl)thio)-1H-1,2,3-triazole-5-carboxylic acid]: where the note is “Table 1”, the IC50 was < 100 nM. As for `COc1ccc(Cn2nnc(C(=O)O)c2Sc2csc(-c3ccc(OC)c(Cl)c3)n2)cc1` [Compound 25-1, 5-((2-(3-chloro-4-methoxyphenyl)thiazol-4-yl)thio)-1-(4-methoxybenzyl)-1H-1,2,3-triazole-4-carboxylic acid], the IC50 (Table 1) is > 10000 nM. Regarding `COc1ccc(-c2nc(Sc3nn[nH]c3C(=O)O)cs2)cc1Cl` [Compound 25-2, 4-((2-(3-chloro-4-methoxyphenyl)thiazol-4-yl)thio)-1H-1,2,3-triazole-5-carboxylic acid], for the setting “Table 1”, the 50% inhibitory concentration (IC50) was < 100 nM. Still for that read-out and setting: to `O=C(O)c1[nH]nnc1Sc1csc(-c2ccc(Cl)cc2Cl)n1` [Compound 26, 4-((2-(2,4-dichlorophenyl)thiazol-4-yl)thio)-1H-1,2,3-triazole-5-carboxylic acid] belongs < 100 nM; to `CC(C)Oc1ccc(-c2nc(Sc3nn[nH]c3C(=O)O)cs2)cc1Cl` [Compound 27, 4-((2-(3-chloro-4-isopropoxyphenyl)thiazol-4-yl)thio)-1H-1,2,3-triazole-5-carboxylic acid], < 100 nM; to `Cn1c(Sc2nn[nH]c2C(=O)O)nnc1-c1ccc(Cl)c(Cl)c1` [Compound 28, 4-((5-(3,4-dichlorophenyl)-4-methyl-4H-1,2,4-triazol-3-yl)thio)-1H-1,2,3-triazole-5-carboxylic acid 2,2,2-trifluoroacetate], 1000 to 10000 nM. As for `CCOc1ccc2sc(Sc3nn[nH]c3C(=O)O)nc2c1` [Compound 29, 4-((5-ethoxybenzo[d]thiazol-2-yl)thio)-1H-1,2,3-triazole-5-carboxylic acid], the IC50 (Table 1) was 100 to 1000 nM.
